This note sets out measurements from patent US6541509B2 (priority 2000, dated 2003).

Like-named read-outs stand apart in the source and are kept apart here.

Assay [1] relates to A549-T12 cells. Type of assay: cell-based, human. The conditions noted are these: for Cell-cycle profile: 48 h, 2 nM Taxol, discodermolide 2 or 6 nM, other drugs as in FIG. 5; for Reversal of the G2-M-phase block induced by Taxol removal: 48 h without Taxol, then 48 h with drug, discodermolide 0.001-24.0 nM, data not shown. How it is done:
Cells were incubated with the different agents for 48 h, fixed, stained with propidium iodide, and analyzed by flow cytometry, as described below.
For the drug substitution experiments, A549-T12 cells were seeded at a density of 3×10^4 cells/mL in 75-cm^2 flasks, and treated with various drugs at the indicated concentrations (FIG. 5). After 48 h, both adherent and nonadherent cells were harvested, fixed in 70% ethanol for at least 20 min, permeabilized with 0.1% Triton X-100 in PBS for 3 min, and stained for 30 min at 37° C. with 10 μg/mL of propidium iodide (Sigma) in a PBS solution containing 1 μg/mL of RNase A (Boehringer Mannheim, Indianapolis, Ind.). Cell-cycle analysis was performed using the Becton Dickinson FACScan and the CellQuest program. […] The cells then were prepared as described above.

Assay [2] relates to J774.2. The assay is described as follows: cells. The class given is cell-based, mouse. As to conditions: J774.2, 72 h, mean ± SE; for IC50: read-out: IC50 (drug concentration that inhibits cell division by 50%). How it is done:
(§1) The drug-sensitive mouse macrophage-like cell line, J774.2, and its Taxol-resistant cell line, J7-T3-1.6, were maintained as previously described. […] Drug-sensitive and vinblastine-resistant human ovarian carcinoma cell lines, SKOV3 and SKVLB, were obtained from Dr. V. Ling, and were maintained as previously described. Both J7-T3-1.6 and SKVLB cells overexpress P-glycoprotein. SKVLB cells were grown in the presence of 1 μM vinblastine. The Taxol-resistant human non-small-cell lung carcinoma cell line, A549-T12, was derived from the drug-sensitive A549 cell line; both cell lines were maintained as previously described.
(§2) For the A549 cell lines, cells were seeded at a density of 1×10^4 cells/mL (A549) or 3×10^4 cells/mL (A549-T12), in triplicate, 6-well plates, and allowed to attach for 24 h. […] The SKOV3 and SKVLB cell lines were assayed in a similar manner. Cells were seeded in triplicate, at a density of 6×10^3 cells/mL (SKOV3) or 12×10^3 cells/mL (SKVLB), in 6-well plates, and incubated with a drug for 6 days. […] J774.2 and J7-T3-1.6 cells were plated at a density of 2×10^4 cells/well, in 96-well plates, and allowed to attach overnight. Serial dilutions of each drug were performed, and the cells were incubated for 72 h. The IC50 was determined using the CellTiter 96™ AQueous nonradioactive cell proliferation assay (Promega, Madison, Wis.), which correlates with the number of live cells. Different methods for determining IC50 values were used, depending on the most accurate method for each particular set of cell lines.

The test system of assay [3] is J7-T3-1.6. The assay is described as follows: cells. As to conditions: for IC50: J7-T3-1.6, 72 h, mean ± SE, read-out: IC50 (drug concentration that inhibits cell division by 50%); for Fold resistance (ratio of IC50 J7-T3-1.6 to J774.2): after 72 h. The class given is cell-based, mouse. How it is done:
as §1, §2

Assay [4] relates to A549-T12. The assay is described as follows: cells. Type of assay: cell-based, human. The conditions noted are these: for IC50: read-out: IC50 (drug concentration that inhibits cell division by 50%). The procedure:
as §1, §2

Assay [5] deals with SKOV3. The assay is described as follows: cells. As to conditions: SKOV3, 6 days, mean ± SE; for IC50: read-out: IC50 (drug concentration that inhibits cell division by 50%). Type of assay: cell-based, human. The procedure: as §1, §2
The subject of assay [6] is SKVLB. The assay is described as follows: cells. The class given is cell-based, human. As to conditions: for IC50: SKVLB, 6 days, mean ± SE, read-out: IC50 (drug concentration that inhibits cell division by 50%); for Fold resistance (ratio of IC50, SKVLB and SKOV3): after 6 days. How it is done: as §1, §2
The test system of assay [7] is A549. The assay is described as follows: cells. Type of assay: cell-based, human. The conditions noted are these: for IC50: read-out: IC50 (drug concentration that inhibits cell division by 50%). How it is done:
as §1, §2

Assay [8] relates to A549-T12 cells. Type of assay: cell-based, human. As to conditions: 48 h; concentrations as in FIG. 4. The procedure:
A549-T12 cells were grown on cover slips and treated with the different compounds for 48 h. Cells were then permeabilized, fixed, and incubated with an α-tubulin antibody, as described below.
A549-T12 cells, which were grown to subconfluency on glass cover slips in the absence of drug or in the presence of different drugs at varying concentrations (FIG. 4), were prepared for immunofluorescence microscopy as previously described, with the following modifications: (a) nonspecific binding was blocked using 10% normal goat serum in PBS for 30 min at 37° C.; (b) cells were incubated with a monoclonal antibody to α-tubulin (Sigma; 1:100 dilution; 5% normal goat serum in PBS), followed by a Cy3-conjugated anti-mouse IgG secondary antibody (Amersham, Arlington Heights, Ill.; 1:1000 dilution); and (c) slides were analyzed using the Zeiss Axioskop microscope (rhodamine filter) at 63× magnification.

Assay [9] has as its system microtubules. The assay is described as follows: In vitro microtubule polymerization assay. The class given is biochemical. As to conditions: in the absence of GTP.
The mark [10] stands for this setting: A549-T12, 72 h, cells maintained in 2 nM Taxol, mean ± SE.
The mark [11] stands for this setting: Homo sapiens, Ovarian carcinoma cell, 144 h.

Take `C/C(=C\c1csc(C)n1)[C@@H]1C[C@@H]2O[C@]2(C)CCC[C@H](C)[C@H](O)[C@@H](C)C(=O)C(C)(C)[C@@H](O)CC(=O)O1` [EpoB, epothilone B]: the Cell-cycle profile entry in [1] is on record as “normal cell-cycle profile”. Besides, the “Reversal of the G2-M-phase block induced by Taxol removal” value (from here on “Reversal”) in [1] is “return of a normal cell-cycle profile”. For the same compound, the “IC50 (drug concentration that inhibits cell division by 50%)” value is given as “most sensitive” in assay [2]; “highest sensitivity” in assay [5]; “more potent” in assay [7] (A549, 72 h, mean ± SE). For the same compound, the IC50 in assay [2] turned out to be 0.4 ± 0.1 nM; in [3] it was 12 ± 4 nM; in assay [4] (setting [10]), 3.3 ± 0.72 nM; in assay [5], 0.5 ± 0.09 nM; in assay [6], 9.5 ± 2.1 nM; in assay [7] (A549, 72 h, mean ± SE), 0.7 ± 0.1 nM. The “Fold resistance (ratio of IC50 J7-T3-1.6 to J774.2)” value in [3] is recorded as 30 fold; in [3] (listed as epothilone B), “low resistance”. Also, the “Fold resistance (ratio of IC50 A549-T12 to A549)” value in [4] (72 h) is given as 4.7 fold; in assay [4] (72 h, listed as epothilone B) it was “cross-resistance”. The “Fold resistance (ratio of IC50, SKVLB and SKOV3)” value in [6] was 19.0 fold; in assay [6] (listed as epothilone B) it was “low-level cross-resistance”. Moreover, the “Microtubule cytoskeleton / ability to substitute for Taxol” value (“Microtubule cytoskeleton / ability” for short) in assay [8] was “normal microtubule cytoskeleton”.
`CO[C@]12C=C[C@](C)(O1)[C@@H](OC(=O)/C=C/c1cn(C)cn1)C[C@H]1C(C)=CC[C@H](C(C)C)[C@H]1/C=C\2CO[C@@H]1OC[C@@H](O)[C@@H](O)[C@@H]1OC(C)=O` [Eleu, eleutherobin]: the Cell-cycle profile result in assay [1] is recorded as “normal cell-cycle profile”. Also, the “Reversal” value in [1] is “return of a normal cell-cycle profile”. The results for the “IC50 (drug concentration that inhibits cell division by 50%)” value in [2], in [5] and in assay [7] were “quite insensitive”, “decreased but similar responses” and “comparable activities”, respectively. In addition, the IC50 in [2] (Mus musculus) was 394 ± 5.8 nM; in assay [3] (Mus musculus), greater than 5000 nM; in assay [4] (Homo sapiens, 72 h) it was 69 ± 11.3 nM; in assay [5] (Homo sapiens, SK-OV-3, 144 h), 8.2 ± 3.8 nM; in assay [6] (setting [11]) it was greater than 5000 nM; in [7] (Homo sapiens, A549, 72 h), 14 ± 2.8 nM. In assay [3], the “Fold resistance (ratio of IC50 J7-T3-1.6 to J774.2)” value was greater than 12.7 fold. Besides, the results for the “Fold resistance (ratio of IC50, SKVLB and SKOV3)” value in assay [6] and in assay [6] (listed as eleutherobin) were greater than 609.8 fold and “definite cross-resistance”, respectively. The Assembly of microtubules entry in assay [9] was “enhanced the assembly of stable microtubules”. Further, in [8], the “Microtubule cytoskeleton / ability” value is “normal microtubule cytoskeleton”.
`CC[C@]1(O)C[C@@H]2CN(CCc3c([nH]c4ccccc34)[C@@](C(=O)OC)(c3cc4c(cc3OC)N(C)[C@H]3[C@@](O)(C(=O)OC)[C@H](OC(C)=O)[C@]5(CC)C=CCN6CC[C@]43[C@@H]65)C2)C1` [VBL, vinblastine]: in [1], the Cell-cycle profile result is on record as “mitotic block”. Besides, the “Reversal” value in assay [1] was “irreversible”. Also, the IC50 in assay [2] (Mus musculus) amounted to 6 ± 2.7 nM; in assay [3] (Mus musculus), 767 ± 351 nM; in assay [4] (Homo sapiens, A549-T12, 72 h, cells maintained in 2 nM Taxol, mean ± SE) it was 1.8 ± 0.18 nM; in assay [5] (Homo sapiens, SK-OV-3, 144 h), 1.1 ± 0.1 nM; in assay [6] (setting [11]) it was 1880 nM; in assay [7] (Homo sapiens, A549, 72 h, mean ± SE), 1.8 nM. Also, the “Fold resistance (ratio of IC50 J7-T3-1.6 to J774.2)” value in [3] is 127.8 fold; in assay [3] (listed as vinblastine), “significant cross-resistance”. In addition, the “Fold resistance (ratio of IC50 A549-T12 to A549)” value in assay [4] (72 h) is recorded as 1.0 fold; in assay [4] (72 h, listed as vinblastine) it was “no cross-resistance”. In addition, the “IC50 (drug concentration that inhibits cell division by 50%)” value in assay [5] is listed as “highest sensitivity”. The “Fold resistance (ratio of IC50, SKVLB and SKOV3)” value in assay [6] is reported as 1,709.4 fold. Also, the “Microtubule cytoskeleton / ability” value in assay [8] is recorded as “Neither discodermolide nor vinblastine was able to substitute for Taxol”.
Regarding `C/C(=C\c1csc(C)n1)[C@@H]1C[C@@H]2O[C@@H]2CCC[C@H](C)[C@H](O)[C@@H](C)C(=O)C(C)(C)[C@@H](O)CC(=O)O1` [EpoA, epothilone A], in [1], the Cell-cycle profile result is recorded as “normal cell-cycle profile”. Further, in assay [1], the “Reversal” value was “return of a normal cell-cycle profile”. The IC50 in assay [2] is 10.6 ± 2 nM; in assay [3], 170 ± 14 nM; in assay [4] (setting [10]) it was 34 ± 3.1 nM; in assay [5] it was 10.3 ± 4.5 nM; in assay [6], 190 ± 14 nM; in assay [7] (A549, 72 h, mean ± SE), 6.4 ± 2 nM. Besides, the “Fold resistance (ratio of IC50 J7-T3-1.6 to J774.2)” value in assay [3] is 16 fold; in assay [3] (listed as epothilone A), “low resistance”. The “Fold resistance (ratio of IC50 A549-T12 to A549)” value in [4] (72 h) is reported as 5.3 fold; in assay [4] (72 h, listed as epothilone A) it was “cross-resistance”. For the same compound, the “IC50 (drug concentration that inhibits cell division by 50%)” value is recorded as “decreased but similar responses” in [5] and “comparable activities” in assay [7] (A549, 72 h, mean ± SE). In addition, the “Fold resistance (ratio of IC50, SKVLB and SKOV3)” value is on record as 18.5 fold in assay [6] and “low-level cross-resistance” in assay [6] (listed as epothilone A). Besides, the “Microtubule cytoskeleton / ability” value in [8] is recorded as “normal microtubule cytoskeleton”.
